Patent US20160362416A1, “ANTIVIRAL COMPOUNDS” (Gilead Sciences, Inc., priority 2012, published 2016)

What was measured:
[1] = system: Y93H in genotype 3a NS5A replicon; assay: Resistance mutant replicon assay, genotype 3a NS5A Y93H; type: cell-based, HCV; conditions: Hepatitis C virus, read-out: 3a Y93H (nM)
Procedure: (§1) Evaluation of cell-based anti-HCV activity: Antiviral potency (EC50) was determined using a Renilla luciferase (RLuc)-based HCV replicon reporter assay. To perform the assay for genotype 1 and 2a JFH-1, stable HCV 1a RLuc replicon cells (harboring a dicistronic genotype 1a H77 replicon that encodes a RLuc reporter), stable HCV lb RLuc replicon cells (harboring a dicistronic genotype 1b Conl replicon that encodes a RLuc reporter), or stable HCV 2a JFH-1 Rluc replicon cells (harboring a dicistronic genotype 2a JFH-1 replicon that encodes a RLuc reporter; with L31 present in NS5A) were dispensed into 384-well plates for EC50 assays. To perform the assay for genotype 2a (with M31 present in NS5A) or 2b, NS5A chimeric genotype 2a JFH-1 replicons that encodes a RLuc-Neo reporter and either genotype 2a J6 strain NS5A gene or genotype 2b MD2b-1 strain NS5A gene (both with M31 present) respectively, were either transiently transfected (t) into Huh-Lunet cells or were established as stably replicating replicon cells (s) is provided. Either cells were dispensed into 384-well plates for EC50 assays. To perform the assay for genotype 3 and 4, NS5A chimeric genotype 1b Conl replicons that encodes a Pi-RLuc reporter and either genotype 3a S52 strain NS5A gene or genotype 4a ED43 strain NS5A gene respectively, were transiently transfected (t) into Huh-Lunet cells, which were subsequently dispensed into 384-well plates. Compounds were dissolved in DMSO at a concentration of 10 mM and diluted in DMSO either manually or using an automated pipeting instrument. Serially 3-fold diluted compounds were either manually mixed with cell culture media and added to the seeded cells or directly added to the cells using an automated instrument. DMSO was used as a negative (solvent; no inhibition) control, and the protease inhibitor ITMN-191 was included at a concentration >100×EC50 as a positive control. 72 hours later, cells were lysed and Renilla luciferase activity quantified as recommended by the manufacturer (Promega-Madison, Wis.). Non-linear regression was performed to calculate EC50 values.
(§2) To determine the antiviral potency (EC50) against resistance mutants, resistance mutations, including M28T, Q30R, Q30H, Q30E, L31M, Y93C, Y93H, and Y93N in genotype 1a NS5A, Y93H and L31V/Y93H in genotype 1b NS5A, and Y93H for in genotype 3a NS5A, were introduced individually into either 1a Pi-Rluc or 1b Pi-Rluc replicons by site directed mutagenesis. Replicon RNA of each resistant mutant was transiently transfected into Huh-7-derived cured-51 cells and antiviral potency was determined on these transfected cells as described above.

[2] = system: NS5A chimeric genotype 1b Con1 replicon with genotype 4a ED43 strain NS5A gene; assay: HCV genotype 4a NS5A chimeric replicon assay; type: cell-based; conditions: Hepatitis C virus, 72 h, read-out: 4a (s) (nM)
Procedure: as §1, with “[…],” for “were transiently transfected (t) into Huh-Lunet cells,”

[3] = system: NS5A chimeric genotype 1b Con1 replicon with genotype 3a S52 strain NS5A gene; assay: HCV genotype 3a NS5A chimeric replicon assay; type: cell-based; conditions: Hepatitis C virus, 72 h, read-out: 3a (nM)
Procedure: as §1

[4] = system: NS5A chimeric genotype 2a JFH-1 replicon with genotype 2b MD2b-1 strain NS5A gene (M31); assay: HCV genotype 2b NS5A chimeric replicon assay, stable (s); type: cell-based; conditions: Hepatitis C virus, 72 h, read-out: 2b (s) (nM)
Procedure: as §1

[5] = system: stable HCV 1a RLuc replicon cells (genotype 1a H77 replicon); assay: HCV genotype 1a RLuc replicon reporter assay; type: cell-based; conditions: Hepatitis C virus; stable genotype 1a H77 RLuc replicon cells, 72 hours
Procedure: as §1

[6] = system: Y93H in genotype 1a NS5A replicon; assay: Resistance mutant replicon assay, genotype 1a NS5A Y93H; type: cell-based, HCV; conditions: Hepatitis C virus, read-out: 1a Y93H (nM)
Procedure: as §1, §2

[7] = system: Y93N in genotype 1a NS5A replicon; assay: Resistance mutant replicon assay, genotype 1a NS5A Y93N; type: cell-based, HCV; conditions: Hepatitis C virus, read-out: 1a Y93N (nM)
Procedure: as §1, §2

[8] = system: stable HCV 1b RLuc replicon cells (genotype 1b Con1 replicon); assay: HCV genotype 1b RLuc replicon reporter assay; type: cell-based; conditions: Hepatitis C virus; stable genotype 1b Con1 RLuc replicon cells, 72 hours
Procedure: as §1

[9] = system: stable HCV 2a JFH-1 Rluc replicon cells (L31 present in NS5A); assay: HCV genotype 2a JFH-1 RLuc replicon reporter assay; type: cell-based; conditions: Hepatitis C virus, 72 h, read-out: 2a JFH (nM)
Procedure: as §1

[10] = system: NS5A chimeric genotype 2a JFH-1 replicon with genotype 2a J6 strain NS5A gene (M31); assay: HCV genotype 2a J6 NS5A chimeric replicon assay, transient (t); type: cell-based; conditions: Hepatitis C virus, 72 h, read-out: 2a J6 (t) (nM)
Procedure: as §1

| SMILES | EC50 [1] | EC50 [2] | EC50 [3] | EC50 [4] | EC50 [5] | EC50 [6] | EC50 [7] | EC50 [8] | EC50 [9] | EC50 [10] |
| --- | --- | --- | --- | --- | --- | --- | --- | --- | --- | --- |
| CC[C@H](C)[C@H](NC(=O)OC)C(=O)N1[C@@H](C)CC[C@H]1c1ncc(-c2ccc3c(c2)COc2cc4c(cc2-3)CCc2nc([C@@H]3CC[C@H](C)N3C(=O)[C@@H](NC(=O)OC)C3C[C@@H](C)O[C@H](C)C3)[nH]c2-4)[nH]1 (stereo partly drawn) [Example BE, methyl{(2S,3S)-1-[(2S,5S)-2-(5-{2-[(2S,5S)-1-{(2S)-2-[(2R,6R)-2,6-dimethyltetrahydro-2H-pyran-4-yl]-2-[(methoxycarbonyl)amino]acetyl}-5-methylpyrrolidin-2-yl]-1,4,5,11-tetrahydroisochromeno[4′,3′:6,7]naphtho[1,2-d]imidazol-9-yl}-1H-imidazol-2-yl)-5-methylpyrrolidin-1-yl]-3-methyl-1-oxopentan-2-yl}carbamate] | 2.25 nM | 0.011 nM | 0.022 nM | 0.029 nM | 0.017 nM | 0.755 nM | 1.42 nM | 0.019 nM | 0.011 nM | – |
| COC(=O)N[C@H](C(=O)N1[C@@H](c2ncc(-c3ccc4c(c3)COc3cc5c(ccc6nc([C@@H]7C[C@H](C)[C@H](C)N7C(=O)[C@@H](NC(=O)OC)C7C[C@@H](C)O[C@H](C)C7)[nH]c65)cc3-4)[nH]2)C[C@@H](C)[C@H]1C)C1C[C@@H](C)O[C@H](C)C1 (stereo partly drawn) [Example BB, Methyl {(1S)-1-[(2R,6R)-2,6-dimethyltetrahydro-2H-pyran-4-yl]-2-[(2R,3R,5R)-5-(5-{2-[(2S,4S,5S)-1-{(2S)-2-[(2R,6R)-2,6-dimethyltetrahydro-2H-pyran-4-yl]-2-[(methoxycarbonyl)amino]acetyl}-4,5-dimethylpyrrolidin-2-yl]-1,11-dihydroisochromeno[4′,3′:6,7]naphtho[1,2-d]imidazol-9-yl}-1H-imidazol-2-yl)-2,3-dimethylpyrrolidin-1-yl]-2-oxoethyl}carbamate] | – | 2.54 nM | 10.3 nM | 10.6 nM | 3.85 nM | 20.2 nM | 29.6 nM | 0.205 nM | 2.96 nM | – |
| COC[C@H]1C[C@@H](c2nc3ccc4cc5c(cc4c3[nH]2)OCc2cc(-c3cnc([C@@H]4CC[C@H](C)N4C(=O)[C@@H](NC(=O)OC)C4C[C@@H](C)O[C@H](C)C4)[nH]3)ccc2-5)N(C(=O)[C@@H](NC(=O)OC)C2C[C@@H](C)O[C@H](C)C2)C1 (stereo partly drawn) [Example BD, methyl {(1S)-1-[(2R,6R)-2,6-dimethyltetrahydro-2H-pyran-4-yl]-2-[(2S,5S)-2-(5-{2-[(2S,4S)-1-{(2S)-2-[(2R,6R)-2,6-dimethyltetrahydro-2H-pyran-4-yl]-2-[(methoxycarbonyl)amino]acetyl}-4-methoxymethylpyrrolidin-2-yl]-1,11-dihydroisochromeno[4′,3′:6,7]naphtho[1,2-d]imidazol-9-yl}-1H-imidazol-2-yl)-5-methylpyrrolidin-1-yl]-2-oxoethyl}carbamate] | 0.814 nM | 0.029 nM | 0.072 nM | 0.026 nM | 0.06 nM | 0.088 nM | 0.104 nM | 0.096 nM | 0.017 nM | – |
| COC(=O)N[C@H](C(=O)N1[C@@H](C)CC[C@H]1c1ncc(-c2ccc3c(c2)COc2cc4c(ccc5nc([C@@H]6CC[C@H](C)N6C(=O)[C@H](NC(=O)OC)[C@H]6C[C@@H](C)O[C@@H](C)C6)[nH]c54)cc2-3)[nH]1)C(C)C [Example AN, Methyl {(2S)-1-[(2S,5S)-2-(5-{2-[(2S,5S)-1-{(2R)-2-[(2R,6S)-2,6-dimethyltetrahydro-2H-pyran-4-yl]-2-[(methoxycarbonyl)amino]acetyl}-5-methylpyrrolidin-2-yl]-1,11-dihydroisochromeno[4′,3′:6,7]naphtho[1,2-d]imidazol-9-yl}-1H-imidazol-2-yl)-5-methylpyrrolidin-1-yl]-3-methyl-1-oxobutan-2-yl}carbamate] | – | 0.935 nM | 4.44 nM | 4.44 nM | 4.44 nM | – | – | 0.049 nM | 0.852 nM | 4.44 nM |
| CC[C@H]1CC[C@@H](c2nc3ccc4cc5c(cc4c3[nH]2)OCc2cc(-c3cnc([C@@H]4CC[C@H](C)N4C(=O)[C@@H](NC(=O)OC)C(C)C)[nH]3)ccc2-5)N1C(=O)[C@@H](NC(=O)OC)[C@@H]1CCCOC1 [Example AH, Methyl{(1S)-2-[(2S,5S)-2-ethyl-5-(9-{2-[(2S,5S)-1-{(2S)-2-[(methoxycarbonyl)amino]-3-methylbutanoyl}-5-methylpyrrolidin-2-yl]-1H-imidazol-5-yl}-1,11-dihydroisochromeno[4′,3′:6,7]naphtho[1,2-d]imidazol-2-yl)pyrrolidin-1-yl]-2-oxo-1-[(3S)-tetrahydro-2H-pyran-3-yl]ethyl}carbamate] | – | 0.017 nM | 0.154 nM | 0.104 nM | 0.026 nM | – | – | 0.021 nM | 0.031 nM | 0.172 nM |
